“Also recorded” adds a separate entry of the source. Structures can show the parent of a compound that is named as a salt.
How the values were obtained:
[1] = tested on: RPS19-deficient murine erythroid progenitor cells; experiment: Phenotypic assay for rescued cell proliferation of murine RPS19-deficient erythroid progenitor cells; assay type: cell-based, mouse; conditions: for Emax / EC50: Mus musculus, Erythroid progenitor cell; for Emax: maximal proliferation rescue, read-out: ECMAX (% rescue); for EC50: proliferation rescue of RPS19-deficient erythroid progenitor cells; for rescue of proliferation (in words): RPS19-deficient murine erythroid progenitor cells
From the text: Correction of reduced proliferative capacity of RPS19-deficient erythroid progenitors was used as readout in a phenotypic screen for novel drug candidates.

[2] = known from Saito et al.; cited from earlier work
[3] = target: T1, CDK19 (Homo sapiens (Human), UniProt Q9BWU1); experiment: 18 selected kinases panel, DiscoveRx LeadHunter Discovery Services; assay type: binding; conditions: tested on 18 selected kinases
Description: DBA-4 was tested on 18 selected kinases by DiscoveRx LeadHunter™ Discovery Services.

[4] = target: T1, CDK19; experiment: KinomeScan (DiscoveRx) on 468 kinases; assay type: binding; conditions: 0.5 μM
From the text: (§1) Arrows point at CDK8 and CDK19.
(§2) In particular, a compound may be considered to be a CDK8 and/or CDK19 inhibitor if it can inhibit CDK8 and/or CDK19 at a concentration as defined herein above using the KinomeScan assay.

[5] = target: CDK8 (Homo sapiens (Human), UniProt P49336); experiment: KinomeScan (DiscoveRx) on 468 kinases; assay type: binding; conditions: 0.5 μM
From the text: as §1, §2

[6] = tested on: RPS19-deficient erythroid progenitor cells; experiment: 7-AAD FACS, cell survival of RPS19-deficient erythroid progenitors; assay type: cell-based, mouse
From the text: (§3) In addition, the selective CDK8/CDK19 inhibitors DBA-7 and DBA-8 both rescued RPS19-deficient erythroid progenitor cells from apoptosis (FIG. 7) and loss of kit+ progenitor cell maintenance in culture (FIG. 8).

[7] = tested on: RPS19-deficient erythroid progenitor cells; experiment: c-kit FACS, maintenance of c-kit+ progenitor cells in culture of RPS19-deficient erythroid progenitors; assay type: cell-based, mouse
From the text: FIG. 8: The selective CDK8/CDK19 inhibitors DBA-7 and DBA-8 rescue the loss of c-kit+ progenitor cell observed in in vitro culture of RPS19-deficient erythroid progenitors.
as §3

[8] = tested on: DBA patient CD34+ cells; experiment: Proliferation of erythroid DBA patient CD34+ cells in vitro; assay type: cell-based, human; conditions: 200 nM; day 14 of culture
Description: 5000 peripheral blood CD34+ cells from healthy donors or DBA patients were plated in serum free medium containing human stem cell factor and Epo to support expansion of erythroid progenitors and precursor cells. […] All three CDK8-inhibitors promote proliferation of DBA patient cells.
(§4) To confirm that CDK8/CDK19 inhibitors rescue erythropoiesis also in human DBA patient cells, CD34+ cells were isolated from healthy donors and DBA patients. CD34+ cells were cultured in conditions supporting expansion of erythroid progenitors and precursors. Three CDK8/CDK19 inhibitors and vehicle control were added to the cultures.

[9] = tested on: DBA patient CD34+ cells; experiment: Erythroid maturation of DBA patient cells in vitro (CD71/CD235a flow cytometry); assay type: cell-based, human; conditions: 200 nM; day 8 of culture; compared to DMSO
Description: Cells were cultured in the same conditions as in FIG. 9 and analysed by flow cytometry at day 8 of culture. CD71 is a positive marker for early erythroid progenitors while CD71 and CD235a positive cells are mature erythroid precursors.
as §4

[10] = tested on: RPS19-deficient mice; experiment: Reticulocyte counts in RPS19-deficient mouse model for DBA; assay type: in vivo; conditions: oral 10 mg/kg every 12 hours, 5 doses; peripheral blood 48 hours after last treatment
Description: Treatment was stopped after 5 doses. 48 hours after last treatment peripheral blood was analysed for reticulocyte counts, which reflects the ongoing production of erythrocytes.
Treatment is stopped after 5 doses. 48 hours after last treatment peripheral blood is analysed for reticulocyte counts, which reflects the ongoing production of erythrocytes. Reticulocyte counts is rescued in RPS19-deficient mice treated with the selective CDK8/CDK19 inhibitors tested. In addition to rescue of reticulocyte and haemoglobin levels, other effects of the tested CDK8/CDK19 inhibitors are determined, in particular their ability to rescue bone marrow hypocellularity, to promote hemapopoetic stem and progenitor development, as well as cell cycle arrest and apoptosis.

T1 sequence (Q9BWU1 whole entry): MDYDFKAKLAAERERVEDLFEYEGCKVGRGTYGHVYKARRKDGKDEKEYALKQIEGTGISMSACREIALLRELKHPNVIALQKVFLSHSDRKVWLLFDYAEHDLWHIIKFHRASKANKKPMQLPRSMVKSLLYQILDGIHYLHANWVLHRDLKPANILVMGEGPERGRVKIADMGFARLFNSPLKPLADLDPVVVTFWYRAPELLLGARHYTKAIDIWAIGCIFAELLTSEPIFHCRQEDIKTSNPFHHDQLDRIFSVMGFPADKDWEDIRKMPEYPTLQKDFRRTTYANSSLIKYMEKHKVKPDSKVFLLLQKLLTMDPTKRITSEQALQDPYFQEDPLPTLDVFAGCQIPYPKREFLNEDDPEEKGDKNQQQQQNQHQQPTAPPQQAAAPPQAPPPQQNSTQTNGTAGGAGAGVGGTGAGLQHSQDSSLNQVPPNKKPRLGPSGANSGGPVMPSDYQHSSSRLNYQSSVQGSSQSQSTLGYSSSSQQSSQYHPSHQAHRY
Sequence of CDK8 (P49336 whole entry): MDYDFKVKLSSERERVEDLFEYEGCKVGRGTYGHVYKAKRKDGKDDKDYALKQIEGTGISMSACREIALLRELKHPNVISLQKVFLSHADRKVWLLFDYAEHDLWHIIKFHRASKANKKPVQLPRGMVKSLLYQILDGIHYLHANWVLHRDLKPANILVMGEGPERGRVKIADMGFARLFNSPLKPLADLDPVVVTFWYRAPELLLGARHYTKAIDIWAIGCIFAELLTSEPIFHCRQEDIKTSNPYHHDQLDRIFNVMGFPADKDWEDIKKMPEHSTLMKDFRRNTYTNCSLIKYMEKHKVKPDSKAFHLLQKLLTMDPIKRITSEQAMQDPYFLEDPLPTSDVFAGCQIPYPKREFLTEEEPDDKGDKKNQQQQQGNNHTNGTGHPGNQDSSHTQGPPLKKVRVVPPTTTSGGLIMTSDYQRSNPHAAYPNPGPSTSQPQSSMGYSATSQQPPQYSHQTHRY

Row | SMILES | Emax [1] | EC50 [1] | rescue of proliferation (in words) [1] | further results
1 | CN(C)c1ccnc2sc(C(N)=O)c(N)c12 [DBA-1] | 25% | 1200 nM | partial dose-dependent rescue of proliferation; also recorded: potent | bone anabolic effect [2]: effect as bone anabolic agents
2 | COc1ccc(-c2cc(C3CC3)nc3sc(C(N)=O)c(N)c23)cc1 [DBA-2] | 45% | 15000 nM | potent | 
3 | CCc1nc2sc(C(N)=O)c(N)c2c2c1CCCC2 [DBA-3] | 38% | 11000 nM | potent | 
4 | COCc1cc(C)nc2sc(C(N)=O)c(N)c12 [DBA-4] | 28% | 2800 nM | potent | inhibition of CDK19 [3]: inhibited
5 | Cc1c(C(N)=O)sc2nc(C(F)(F)F)cc(N)c12 [DBA-5] | 21% | 1700 nM | potent | 
6 | NC(=O)c1sc2nccc(N3CCCN(c4ccccc4)CC3)c2c1N [DBA-6] | 30% |  | partial dose-dependent rescue of proliferation; also recorded: potent | bone anabolic effect [2]: effect as bone anabolic agents
7 | CN(C)C(=O)Cc1ccc(N2CCCN(c3ccnc4sc(C(N)=O)c(N)c34)CC2)cc1 [DBA-7] | 82% | 25 nM | potent; also recorded: partial dose-dependent rescue of proliferation | inhibition of CDK19 [4]: very selectively inhibited; inhibition of CDK8 [5]: very selectively inhibited; rescue from apoptosis (7-AAD) [6]: rescued; rescue of loss of kit+ progenitor cell maintenance in culture [7]: rescued; proliferation of DBA patient cells (cell counts) [8]: rescue proliferation; erythroid maturation of DBA patient cells (CD71, CD235a) [9]: increase erythroid maturation; bone anabolic effect [2]: effect as bone anabolic agents
8 | N#Cc1ccc2ncnc(NCCc3ccccc3)c2c1 [DBA-8, reference compound] | 80% | 500 nM | partial dose-dependent rescue of proliferation | rescue from apoptosis (7-AAD) [6]: rescued; rescue of loss of kit+ progenitor cell maintenance in culture [7]: rescued
9 | CN1CCN(C(=O)c2ccc3cc(CCNc4ncnc5ccc(C#N)cc45)ccc3c2)CC1 [DBA-9] | 60% |  |  | reticulocyte counts [10]: rescued; proliferation of DBA patient cells (cell counts) [8]: rescue proliferation; erythroid maturation of DBA patient cells (CD71, CD235a) [9]: increase erythroid maturation
10 | Cc1c(Br)c(Br)c2c3c1nc(N1CCNCC1)n3CCC2 [DBA-10, 7,8-dibromo-9-methyl-2-(piperazin-1-yl)-5,6-dihydro-4H-imidazo[4,5,1-ij]quinoline hydrochloride, reference compound] | 60% | 20 nM |  | proliferation of DBA patient cells (cell counts) [8]: rescue proliferation; erythroid maturation of DBA patient cells (CD71, CD235a) [9]: increase erythroid maturation
11 | Cn1cc(-c2ccc(-c3cncc(Cl)c3N3CCC4(CCNC4=O)CC3)cc2)cn1 [DBA-11, 8-[3-chloro-5-[4-(1-methyl-1H-pyrazol-4-yl)phenyl]-4-pyridinyl]-2,8-diazaspiro[4.5]decan-1-one, reference compound] | 50% | 20 nM |  | 

Source: patent publication US11471446B2, “Compounds for treatment of hypoproliferative disorders” (LU LICENSE AB, priority 2015, dated 2022)
